Data set [1] concerns ICR mice. The data set is described as follows: Acute toxicity test, oral, mice. It is filed as in vivo. As for the experimental part:
(§1) To perform an acute toxicity test of Chloranthus henryi extract and the sesquiterpene compound of formula (1), 6-week-old ICR mice (♂, 25 g, Korean Bio Corp.) were divided into 4 groups with two mice per each group, and raised under the condition of 22±3° C., 55±10% (humidity), 12L/12D (intensity of illumination). The mice were adapted for 1 week, and freely fed with foods for test animals (Jeil Feed Corp., Korea, for mouse and rat) and sterilized water.
(§2) Chloranthus henryi extract and the sesquiterpene compound of formula (1) were dissolved in a small amount of dimethyl sulfoxide (DMSO), and diluted with 1% carboxylmethyl cellulose. Four groups of mice were orally administered with 540 mg/kg, 180 mg/kg, 60 mg/kg and 20 mg/kg, respectively. Control group was administered with 1% carboxylmethyl cellulose. For 7 days after the administration, the presence of side effects or mortality was observed as follows. […] The changes in clinical signs and mortality of animals after administration were observed twice everyday for 7 days, i.e., in the morning and in the afternoon.
(§3) Further, the internal organs of the dead mice were examined through macroscopic observation after necropsy on the 7th day. The change in body weight of animals by Chloranthus henryi extract and sesquiterpene compound of formula (1) was observed everyday after administration.

The nature of data set [2]: Acute toxicity test, oral, mice. To be noted: male, mouse, in vivo, ICR mice, single administration, 7 days observation. It is filed as in vivo. Here is the method:
as §1, §2, §3

In data set [3] the test system is Botrytis cinerea. The data set is described as follows: microbe, parasite or virus in culture. It counts as cell-based.
Data set [4] deals with Corticium sasaki. It is filed as in vivo. The note with it: after 8 days.
In data set [5] the test system is Magnaporthe grisea. The data set is described as follows: microbe, parasite or virus in culture. It counts as cell-based. The note with it: Pyricularia oryzae.
Data set [6] deals with Colletotrichum lagenarium. Briefly: microbe, parasite or virus in culture. It counts as cell-based. To be noted: Colletotrichum orbiculare.
Data set [7] has as its system Magnaporthe grisea. It is filed as in vivo. The note with it: RCB rice blast, infected leaf area after 7 days.
Data set [8] has as its system Fusarium oxysporum. The data set is described as follows: microbe, parasite or virus in culture. It counts as cell-based.
For data set [9], the system named is Alternaria kikuchiana. Briefly: microbe, parasite or virus in culture. It is filed as cell-based.
Data set [10] has as its system Rhizoctonia solani. The data set is described as follows: microbe, parasite or virus in culture. It counts as cell-based.
The subject of data set [11] is Phytophthora infestans. It is filed as in vivo. The note with it: for In vivo control values: TLB tomato late blight, after 4 days.
Data set [12] relates to Pythium ultimum. The data set is described as follows: microbe, parasite or virus in culture. It is filed as cell-based. To be noted: Globisporangium ultimum.
Data set [13] deals with Puccinia recondita. It is filed as in vivo.

We go through one compound from patent US7491415B2 (priority 2005, dated 2009).

Molecules are shown by their SMILES. Converted amounts (≈) assume the structure as drawn. “And” between values parts separate entries of the source, which are not always exact repeats. Equal values may be shown once. Read-outs that look alike come from different tables or passages of the source. A value given as a limit tells only on which side of the number the result lay.

`C/C=C(\C)C(=O)OC[C@]1(O)[C@H]2C[C@H]2[C@]2(C)[C@@H]3CC4=C5[C@H](/C(=C(\C)C(=O)OC)C(=O)[C@H](O)[C@@]5(C)[C@@H]5C[C@H]45)[C@@]34OC(=O)C(COC(C)=O)=C4C[C@@H]12` [CHE-23C]: in [1] (540 mg/kg, 7 days), the “mortality in the maximum dosage group” value is “all the mice in the maximum dosage group (540 mg/kg) survived”. The “gross findings caused by the test materials” value in data set [1] (20-540 mg/kg, all treated groups, necropsy on the 7th day) is recorded as “no significant gross findings”. The LD50 at 7 days in data set [2] was > 540 mg/kg. For the same compound, the MIC in [3] amounted to 8 mg/L (≈ 11.8 µM); in data set [5], 4 mg/L (≈ 5.91 µM); in [6], 8 mg/L (≈ 11.8 µM); in data set [8], 16 mg/L (≈ 23.6 µM); in [9] it was 8 mg/L (≈ 11.8 µM); in data set [10], 16 mg/L (≈ 23.6 µM). Besides, the MIC in data set [12] worked out at 1 mg/L (≈ 1.48 µM). Also, the “In vivo control values” was 69% and 50% in data set [4]; 67% in data set [7] (11 ppm spray); 50% in data set [7] (33 ppm spray); 72% in data set [7] (100 ppm spray); 29% in data set [11] (11 ppm spray); 91% in [11] (33 ppm spray). Further, the “In vivo control values” in data set [11] (100 ppm spray) was 93%; in data set [13] (after 7 days), 100% and 87% and 80%. Besides, the “control values in the greenhouse experiments (in words)” value in data set [11] (Phytophthora infestans, greenhouse) is reported as “potent control values”; in data set [13] (in vivo) it was “potent control values”.

As usually defined, the LD50 is the dose at which mortality reaches 50%. The low end stands for greater toxicity, the high end for lower toxicity.
